The test system of series [1] is primary fibroblasts isolated from WT and Hprt−/− mice. The experiment in a line: Autophagy (LC3-II/β-actin) in primary fibroblasts. Format: cell-based. As for the experimental part:
HeLa, HCT116, HT29, HepG2 and RAW cells were obtained from ATCC and grown in DMEM supplemented with GlutaMAX (Life Technologies), 10% fetal calf serum and 20 μg/ml penicillin/streptomycin. HeLa cells stably expressing LC3-GFP have been described previously (Kabeya Y et al., The EMBO Journal, 2000, 19 (2), 5720-5728; Birmingham C L et al, J. Biol. Chem., 2006, 281 (16), […]). Primary fibroblasts isolated from WT and Hprt^−/− mice were generated from ear punch samples after dissociation with trypsin and cultured in DMEM supplemented with Glutamax and 20% fetal calf serum with antibiotics and passaged up to four times to ensure that they were axenic.
Following treatment cells were treated with TNN (Tris-HCl, NaCl, NP40) lysis buffer. […] Following transfer to PVDF membranes (Invitrogen), detection was performed using rabbit anti-LC3 primary (Sigma), mouse anti-Actin (Sigma) and appropriate fluorescent secondary antibodies (LI-COR Biosciences) and imaged on a LICOR fluorescent imaging system.

For series [2], the system named is Winnie mice (spontaneous colitis). The experiment in a line: Spontaneous colitis in Winnie mice, daily gavage up to 14 days. Format: in vivo. The source says: (§1) The vehicle control was water.
Both the colitis and its improvement with treatment [FIGS. 2A and 2(B)] were more marked in the distal colon (DC) of the Winnie mice.

For series [3] the test system is unchanged. The experiment in a line: Spontaneous colitis in Winnie mice, low dose gavage 28 days. It is filed as in vivo.
From the text: as §1

Series [4] deals with C57B1/6 WT mice (chronic DSS induced colitis). The experiment in a line: Chronic DSS-induced colitis in C57Bl/6 WT mice. It is filed as in vivo. Here is the method: as §1
Dextran sodium sulphate (DSS) (36-50 kDa; MP Biochemicals) was administered in the drinking water chronically [0.5% (w/v) for 4 cycles of 5 days on, followed by either 7 or 9 days off].

The subject of series [5] is RaW and Winnie mice. The series can be described thus: Colitis in Winnie and RaW (Rag-/- x Winnie) mice. It is filed as in vivo.
From the text: as §1
T and B lymphocytes are not required for the occurrence of spontaneous colitis in Winnie mice. Winnie x Rag^−/− (RaW) mice are Winnie mice that lack T and B lymphocytes. RaW mice spontaneously develop a colitis phenotype with more proximal disease than Winnie [Eri, R D et al; Mucosal. Immunol. 4, 354-364 (2011)].

In series [6] the test system is Winnie mice (spontaneous colitis). Here is the method:
All the animal experiments were approved by the University of Queensland Animal Ethics Committee. C57B1/6 wild-type (WT) mice were purchased from the Animal Resource Authority, Western Australia and the Hprt^−/−, Winnie and RaW were bred in-house in a pathogen free animal facility. […] 6-MP (MW 170, 6-MP monohydrate, ex Sigma-Aldrich) was dissolved in water. The vehicle control was water.
For DSS induced colitis in Hprt^−/− mice the composite disease activity index (DAI) score was used and this comprised diarrhoea, rectal bleeding and body weight percent loss subscores (0<1% loss; 1=1-5% loss; 2=5-15% loss; 3>15% loss).

For series [7], the system named is Escherichia coli, Enterococcus faecalis and Bacteroides thetaiotamicron. The series can be described thus: Bacterial conversion to thioguanine nucleotides (6-TGN) in vitro. It is filed as in vitro ADME. Conditions: log phase cultures of all three strains, 1 mM, 120 minutes. Here is the method:
Bacterial metabolism of 6-TG was investigated in vitro using the representative gut bacteria Escherichia coli, Enterococcus faecalis and Bacteroides thetaiotamicron. […] In contrast, generation of 6-TGN was minimal over this time period when cultures were incubated with 1 mM 6-MP.

Series [8] deals with HeLa cells expressing LC3-GFP infected with SL1344. The series can be described thus: Antibacterial autophagy assay. Conditions: 6-TG 50 μM. It is filed as cell-based.
Procedure: Briefly HeLa cells were plated in 12-well plates containing 18 mm glass coverslips at a density of 1×10^5 cells per well in DMEM 24 hours before infections. Cells were treated with TG or mock treated with DMSO for 16 hours prior to infection. S. enterica serovar Typhimurium SL1344 carrying a DsRed2 expression plasmid was grown overnight in Luria-Bertani broth containing 100 μg/mL carbenicillin at 37° C. with aeration and subcultured at a dilution of 1/33 for a further 3 h in Luria-Bertani carbenicillin broth. This culture was further diluted in DMEM 10% serum without antibiotics to yield a multiplicity of infection (MOI) of 100 and added to HeLa LC3-GFP cells. Infections were allowed to proceed for 20 minutes and the cells were washed once in complete medium containing 100 μg/mL gentamicin sulfate and then incubated in fresh high gentamicin medium for an additional 40 minutes. […] Slides were viewed for counting under wide-field fluorescence illumination with a 60× lens (Olympus). The fraction of LC3-GFP-positive bacteria per cell was assessed in randomly chosen fields with at least 90 cells counted for each condition. Bacteria were scored as within autophagosomes only when a complete and closely conforming LC3-GFP “capsule” was visible.
Series [9] concerns Salmonella typhimurium (SL1344) in HeLa cells. The experiment in a line: Bacterial replication assay.
The test system of series [10] is Hprt−/− mice (DSS induced colitis). The series can be described thus: Chronic DSS induced colitis in Hprt-/- mice.
For series [11], the system named is DSS induced colitis. The series can be described thus: 6-MP in DSS induced colitis over one month. Conditions: large doses of 6-MP. Format: in vivo, mice. The source says: This discovery was particularly unexpected as these mice lack the ability to form TGNs (the active metabolites) through the conventional metabolic route in the liver and leukocytes. However, formation of the active metabolite was discovered outside the generally understood mechanism. The magnitude of the reduction in disease activity was similar to that found in wild-type mice in which colitis had been induced with DSS. […] Conversion of the related thiopurine, 6-MP, to 6-TGTP was considerably less over the same period consistent with rate-limiting IMPDH in the purine salvage pathway of bacteria.

Where [12] appears, read: WT mice 0.5% DSS, 6-TG 0.5 mg/kg gavage 28 days.
The mark [13] stands for this setting: PC and DC of RaW mice and Winnie controls, 6-TG 2.5 mg/kg.
The mark [14] stands for this setting: RaW and Winnie mice, 6-TG 2.5 mg/kg up to 14 days.

Molecules are shown by their SMILES.

Regarding `CCC(=O)N1CCN(c2ccc(-n3c(=O)ccc4cnc5ccc(-c6cnc7ccccc7c6)cc5c43)cc2C(F)(F)F)CC1` [Torin1], in [1], the autophagy induction entry was “autophagy could be induced”.

Turning to `Nc1nc2nc[nH]c2c(=S)[nH]1` [Formulation 6-TG, 2-amino-6,7-dihydro-3H-purine-6-thione], the “spontaneous colitis (histological colitis)” value in [2] (6-TG 1-2.5 mg/kg daily gavage up to 14 days) is reported as “ameliorated the spontaneous colitis in a dose-dependent manner”. The “pharmacodynamic effect (time to improved colonic histology)” value in series [2] (oral and intra-rectal TG, 1 or 2.5 mg/kg/day) is “less than two weeks”. The “blinded histological colitis scores PC and DC” value in series [3] (6-TG 0.5 mg/kg/d) was “improved blinded histological colitis scores in both PC and DC”. Further, in series [3] (6-TG 0.5 mg/kg/d or 6-MP 2.5 mg/kg/d), the “combined diarrhoea (diarrhoea and rectal bleeding) score” value is “improved with 6-TG”. Moreover, the peripheral blood leukocytes result in [3] (6-TG 0.5 mg/kg/d or 6-MP 2.5 mg/kg/d, P=0.09) was “tended to reduce peripheral blood leukocytes”. In series [4] (setting [12]), the “DSS colitis, total colitis scores, immune and epithelial damage subscores” value is given as “improved with 6-TG”; the colon weight result is “significantly improved”; the combined diarrhoea score entry is recorded as “significantly improved”. In addition, the “peripheral white blood cells” value in series [4] (WT mice DSS-treated and untreated, 6-TG 0.5 mg/kg gavage 28 days) is on record as “decreased peripheral white blood cells”. Further, in series [4] (juvenile C57B1/6 WT mice, irrespective of DSS, 6-TG 0.5 mg/kg), the body weight gain entry is recorded as “reduction of expected body weight gain”. In [5] (setting [13]), the Muc2 expression result was “increased Muc2 expression” and the “inflammation (Ifn-γ, Il-1b)” value is “decreased inflammation”. Further, in series [5] (setting [14]), the “blinded histological PC and DC colitis scores” value was “improved blinded histological PC and DC colitis scores”; the goblet cell morphology result is “restored goblet cell morphology”. The “colitis in mid-colon or proximal colon” value in series [6] (intra-rectal 1 mg/kg daily 14 days) is given as “no improvement”. Also, the “blinded histological scoring of the distal colon” value in [6] (intra-rectal 1 mg/kg daily 14 days, P<0.01) is given as “striking improvement”. Moreover, the combined diarrhea score result in [6] (intra-rectal 1 mg/kg daily, from day 11, vs 6-MP and vehicle) is “statistically significant improvement”. Further, the “6-TGN (6-TGMP, 6-TGDP and 6-TGTP) generation in bacterial pellets” value in [7] was “found in the bacterial pellets”. Further, in series [8], the “LC3 co-localization with intracellular bacteria” value is reported as “significantly increased LC3 co-localization”. In addition, the “intracellular replication of the bacteria (luminescence)” value in series [9] (HeLa cells, 50 or 100 μM 6-TG, 12 h post infection) is “significantly decreased intracellular replication”. The “bacterial growth (OD 600 absorbance)” value in series [9] (over the 12 h period) was “did not alter bacterial growth”. The disease activity result in series [10] (Hprt−/− mice, 0.5% DSS, 6-TG 0.5 mg/kg oral gavage day 28 to 52) is “rapid and appreciable reduction in disease activity”. Further, the immunosuppression result in [10] (Hprt−/− mice, 6-TG 0.5 mg/kg oral gavage) is given as “not associated with immunosuppression”. In addition, the MLN cell counts result in [10] (Hprt−/− mice, DSS, 6-TG 0.5 mg/kg) was “not depressed by 6-TG”. Besides, in series [10] (untreated or DSS exposed Hprt−/− mice, 6-TG 0.5 mg/kg), the “CD3e+CD4+, CD11b+ and CD11c+MHCII+ subset numbers in the MLN” value was “not decreased”.

As to `Sc1ncnc2nc[nH]c12` [Formulation 6-MP, 3,7-dihydropurine-6-thione], the “6-TGN (6-TGMP, 6-TGDP and 6-TGTP) generation in bacterial pellets” value in [7] is given as “minimal”. The colitis entry in series [11] is listed as “no reduction in colitis”.

Source of the values: US12109214B2, “Formulation and treatment methods” (PRODRUGXTEND PTY LTD, priority 2015, dated 2024).
